Assay results taken from patent US20240261274A1, “TREATMENT OF MYC-DRIVEN CANCERS WITH GSPT1 DEGRADERS” (MONTE ROSA THERAPEUTICS, INC., priority 2021, published 2024).

Each compound was assayed against T1, Full length wild-type cereblon CRBN (Homo sapiens, UniProt Q96SW2) (assay: Fluorescence polarization (FP) assay indicating cereblon binding). Details: Table 3B; read-out: rFP IC50.
T1 construct: Full length wild-type cereblon CRBN (80.0 nM, 10 μL) was incubated in assay buffer
Procedure: Compound activity was monitored in a fluorescence polarization (FP) homogeneous assay using 1-[5-({2-[2-(2-{[2-(2,6-dioxopiperidin-3-yl)-1,3-dioxo-2,3-dihydro-1H-isoindol-4-yl]oxy}acetamido)ethoxy]ethyl}carbamoyl)pentyl]-3,3-dimethyl-2-[(1E,3E)-5-[(2E)-1,3,3-trimethyl-5-sulfo-2,3-dihydro-1H-indol-2-ylidene]penta-1,3-dien-1-yl]-3H-indol-1-ium-5-sulfonate as a fluorescent probe. Unless otherwise stated, all reagents were purchased from Sigma Aldrich. Enzymatic reactions were conducted in Perkin-Elmer Black 384 well ProxiPlate Plus (catalogue no. 6008269) in 10 μL total volume. Full length wild-type cereblon CRBN (80.0 nM, 10 μL) was incubated in assay buffer containing 20 mM HEPES (pH 8.0), […], 0.5 mM TCEP and 0.05% Tween 20 in the presence or absence of compound (300 nL). Inhibitors were stored as 10 mM DMSO stocks in an inert environment (low humidity, dark, low oxygen, room temperature) using the Storage Pod System. Compounds and DMSO were dispensed using the Echo E5XX (Labcyte Inc. USA) to give concentrations from 300 to 0.937 or 3000 to 9.3 nM in a 12 data point curve. […] Following incubation at room temperature for 30 min, the assay was initiated by dispensing the probe to a final concentration of 5 nM (2.5 nL of a 20 μM stock) using the Echo E5XX. FP was measured after a period of 12 hours using a Pherastar plate reader (BMG Labtech, Germany) exciting at 590 nm and measuring the amount of parallel and perpendicular light at 675 nm. The FP signal was subsequently normalized to the no-compound control (i.e., DMSO). Analysis and IC50 values were derived using Dotmatics (Dotmatics UK) software.

T1 sequence (Q96SW2 whole entry): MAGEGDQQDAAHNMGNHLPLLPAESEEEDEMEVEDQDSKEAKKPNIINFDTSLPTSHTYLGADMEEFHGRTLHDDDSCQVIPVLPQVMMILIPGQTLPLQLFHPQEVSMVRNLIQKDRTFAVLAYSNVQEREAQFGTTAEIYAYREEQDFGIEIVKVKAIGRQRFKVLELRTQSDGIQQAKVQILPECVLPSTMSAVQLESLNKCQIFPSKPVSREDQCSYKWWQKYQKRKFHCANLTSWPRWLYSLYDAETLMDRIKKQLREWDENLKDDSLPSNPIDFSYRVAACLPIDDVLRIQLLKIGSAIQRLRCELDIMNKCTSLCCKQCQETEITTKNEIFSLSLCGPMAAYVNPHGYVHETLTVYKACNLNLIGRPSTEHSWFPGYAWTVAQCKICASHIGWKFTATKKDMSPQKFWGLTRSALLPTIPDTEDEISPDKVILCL

SMILES	IC50 [nM]
CC1(c2ccc(NC(=O)OCc3cc(F)c4c(c3)C(=O)N(C3CCC(=O)NC3=O)C4)cc2)CC1 (centres unmarked) [Compound 513]	> 1900
CC(C)(C)c1cccc(NC(=O)OCc2cc(F)c3c(c2)C(=O)N(C2CCC(=O)NC2=O)C3)c1 (centres unmarked) [Compound 525]	> 1900
COc1cc(COC(=O)Nc2ccc(N3CCCCC3C)nc2)cc2c1CN(C1CCC(=O)NC1=O)C2=O (centres unmarked) [Compound 538]	≤ 600
COc1cc(COC(=O)Nc2cccc(OC3CC3)c2)cc2c1CN(C1CCC(=O)NC1=O)C2=O (centres unmarked) [Compound 558]	≤ 600
Cc1ccc(NC(=O)OCc2cc(C#N)c3c(c2)C(=O)N(C2CCC(=O)NC2=O)C3)cc1Cl (centres unmarked) [Compound 502]	> 1900
Cc1ccccc1-c1ccc(NC(=O)OCc2cc(F)c3c(c2)C(=O)N(C2CCC(=O)NC2=O)C3)cn1 (centres unmarked) [Compound 519]	≤ 600
O=C1CCC(N2Cc3c(F)cc(COC(=O)Nc4cc(F)cc(OC(F)(F)F)c4)cc3C2=O)C(=O)N1 (centres unmarked) [Compound 512]	> 1900
O=C1CCC(N2Cc3c(F)cc(COC(=O)Nc4ccc(-c5ccccc5)nc4)cc3C2=O)C(=O)N1 (centres unmarked) [Compound 508]	> 1900
COc1cc(COC(=O)Nc2cc(-c3ccccc3)ccn2)cc2c1CN(C1CCC(=O)NC1=O)C2=O (centres unmarked) [Compound 556]	≤ 600
O=C1CCC(N2Cc3c(F)cc(COC(=O)Nc4cc(Cl)cc(OC(F)F)c4)cc3C2=O)C(=O)N1 (centres unmarked) [Compound 534]	> 1900
COc1cc(COC(=O)Nc2cccc(C(C)(C)C)c2)cc2c1CN(C1CCC(=O)NC1=O)C2=O (centres unmarked) [Compound 554]	≤ 600
O=C1CCC(N2Cc3c(F)cc(COC(=O)Nc4cccc(OC(F)(F)F)c4)cc3C2=O)C(=O)N1 (centres unmarked) [Compound 515]	> 1900
COc1cc(COC(=O)Nc2ccc3c(c2)OCC3(C)C)cc2c1CN(C1CCC(=O)NC1=O)C2=O (centres unmarked) [Compound 537]	≤ 600
O=C1CCC(N2Cc3c(F)cc(COC(=O)Nc4cc(Cl)cc(Cl)c4)cc3C2=O)C(=O)N1 (centres unmarked) [Compound 528]	> 1900
O=C1CCC(N2Cc3c(F)cc(COC(=O)Nc4ccc(-c5ccccn5)cc4)cc3C2=O)C(=O)N1 (centres unmarked) [Compound 511]	≤ 600
COc1cc(COC(=O)Nc2cnc(-c3ccccc3)c(C)c2)cc2c1CN(C1CCC(=O)NC1=O)C2=O (centres unmarked) [Compound 559]	≤ 600

Results, then the compound that gave them:

IC50 [nM]	SMILES
> 1900	Cc1ccc(NC(=O)OCc2cc(Br)c3c(c2)C(=O)N(C2CCC(=O)NC2=O)C3)cc1Cl (centres unmarked) [Compound 501]
≤ 600	COc1cc(COC(=O)Nc2ccc(C(C)(C)C)nc2)cc2c1CN(C1CCC(=O)NC1=O)C2=O (centres unmarked) [Compound 544]
> 1900	Cc1ccc(NC(=O)OCc2cc(F)c3c(c2)C(=O)N(C2CCC(=O)NC2=O)C3)cc1OC(F)F (centres unmarked) [Compound 535]
≤ 600	COc1cc(COC(=O)Nc2cc(C)cc(C)c2)cc2c1CN(C1CCC(=O)NC1=O)C2=O (centres unmarked) [Compound 552]
≤ 600	COc1cc(COC(=O)Nc2cccc(OC(F)F)c2)cc2c1CN(C1CCC(=O)NC1=O)C2=O (centres unmarked) [Compound 553]
> 1900	Cc1ccc(NC(=O)OCc2cc(Cl)c3c(c2)C(=O)N(C2CCC(=O)NC2=O)C3)cc1Cl (centres unmarked) [Compound 504]
> 1900	O=C1CCC(N2Cc3c(F)cc(COC(=O)Nc4cc(-c5ccccc5)ccn4)cc3C2=O)C(=O)N1 (centres unmarked) [Compound 524]
≤ 600	COc1cc(COC(=O)Nc2ccc(-c3ccccc3C)nc2)cc2c1CN(C1CCC(=O)NC1=O)C2=O (centres unmarked) [Compound 560]
> 1900	O=C1CCC(N2Cc3c(F)cc(COC(=O)Nc4cc(F)cc(OC(F)F)c4)cc3C2=O)C(=O)N1 (centres unmarked) [Compound 506]
> 1900	Cc1ccc(NC(=O)OCc2cc(F)c3c(c2)C(=O)N(C2CCC(=O)NC2=O)C3)cc1Cl (centres unmarked) [Compound 503]
> 1900	Cc1ccc(NC(=O)OCc2ccc3c(c2F)C(=O)N(C2CCC(=O)NC2=O)C3)cc1Cl (centres unmarked) [Compound 571]
> 1900	Cc1cc(C)cc(NC(=O)OCc2cc(F)c3c(c2)C(=O)N(C2CCC(=O)NC2=O)C3)c1 (centres unmarked) [Compound 531]
≤ 600	COc1cc(COC(=O)Nc2ccc(C3(C)CC3)cc2)cc2c1CN(C1CCC(=O)NC1=O)C2=O (centres unmarked) [Compound 540]

Same assay, conditions: bound stated; read-out: IC50 value

IC50 [nM]	SMILES
< 1100	COc1ccccc1CNC(=O)OCc1ccc2c(c1)C(=O)N(C1CCC(=O)NC1=O)C2 (centres unmarked) [Compound 297]
< 1100	CC1COc2cc(NC(=O)OCc3ccc4c(c3)C(=O)N(C3CCC(=O)NC3=O)C4)ccc21 (centres unmarked) [Compound 303]

Same assay, conditions: bounds stated; read-out: IC50 value

SMILES	IC50 [nM]
O=C1CCC(N2Cc3ccc(CNC(=O)Nc4ccc(F)c(Cl)c4)cc3C2=O)C(=O)N1 (centres unmarked) [Compound 42]	< 600
CCOc1ccc(NC(=O)NCc2ccc3c(c2)C(=O)N(C2CCC(=O)NC2=O)C3)cc1 (centres unmarked) [Compound 16]	< 600
O=C1CCC(N2Cc3ccc(CNC(=O)Nc4ccccc4C(F)(F)F)cc3C2=O)C(=O)N1 (centres unmarked) [Compound 49]	< 600
COc1ccc(C)cc1NC(=O)NCc1ccc2c(c1)C(=O)N(C1CCC(=O)NC1=O)C2 (centres unmarked) [Compound 17]	< 600
O=C1CCC(N2Cc3ccc(CNC(=O)NC4CCCc5ccccc54)cc3C2=O)C(=O)N1 (centres unmarked) [Compound 40]	< 600
COc1ccccc1NC(=O)NCc1ccc2c(c1)C(=O)N(C1CCC(=O)NC1=O)C2 (centres unmarked) [Compound 7]	< 600
O=C1CCC(N2Cc3ccc(CNC(=O)NCCc4ccccc4)cc3C2=O)C(=O)N1 (centres unmarked) [Compound 27]	< 600
O=C1CCC(N2Cc3ccc(CNC(=O)NCC4CC4)cc3C2=O)C(=O)N1 (centres unmarked) [Compound 26]	< 600
Cc1ccc(F)cc1NC(=O)NCc1ccc2c(c1)C(=O)N(C1CCC(=O)NC1=O)C2 (centres unmarked) [Compound 62]	< 600
COc1cccc(CNC(=O)NCc2ccc3c(c2)C(=O)N(C2CCC(=O)NC2=O)C3)c1 (centres unmarked) [Compound 53]	< 600
CC(C)(C)c1ccccc1NC(=O)NCc1ccc2c(c1)C(=O)N(C1CCC(=O)NC1=O)C2 (centres unmarked) [Compound 11]	< 600
Cc1cccc(NC(=O)NCc2ccc3c(c2)C(=O)N(C2CCC(=O)NC2=O)C3)c1C (centres unmarked) [Compound 44]	< 600
CCc1ccccc1NC(=O)NCc1ccc2c(c1)C(=O)N(C1CCC(=O)NC1=O)C2 (centres unmarked) [Compound 36]	< 600
Cc1cccc(NC(=O)NCc2ccc3c(c2)C(=O)N(C2CCC(=O)NC2=O)C3)c1 (centres unmarked) [Compound 43]	< 600
Cc1ccc(NC(=O)NCc2ccc3c(c2)C(=O)N(C2CCC(=O)NC2=O)C3)cc1 (centres unmarked) [Compound 21]	< 600
O=C1CCC(N2Cc3ccc(CNC(=O)Nc4ccccc4F)cc3C2=O)C(=O)N1 (centres unmarked) [Compound 48]	< 600
O=C1CCC(N2Cc3ccc(CNC(=O)Nc4ccc(C(F)(F)F)cc4)cc3C2=O)C(=O)N1 (centres unmarked) [Compound 41]	< 600
CC(C)(C)c1ccc(NC(=O)NCc2ccc3c(c2)C(=O)N(C2CCC(=O)NC2=O)C3)cc1 (centres unmarked) [Compound 56]	< 600
COc1ccc(NC(=O)NCc2ccc3c(c2)C(=O)N(C2CCC(=O)NC2=O)C3)cc1 (centres unmarked) [Compound 5]	< 600

The remaining lines, values ahead:

IC50 [nM]	SMILES
< 600	CC(C)c1ccc(NC(=O)NCc2ccc3c(c2)C(=O)N(C2CCC(=O)NC2=O)C3)cc1 (centres unmarked) [Compound 57]
< 600	COc1ccc(CNC(=O)NCc2ccc3c(c2)C(=O)N(C2CCC(=O)NC2=O)C3)cc1 (centres unmarked) [Compound 52]
< 600	C[C@@H](NC(=O)NCc1ccc2c(c1)C(=O)N(C1CCC(=O)NC1=O)C2)c1ccccc1 (some centres unmarked) [Compound 54]
< 600	COc1ccc(NC(=O)NCc2ccc3c(c2)C(=O)N(C2CCC(=O)NC2=O)C3)c(C)c1 (centres unmarked) [Compound 23]
< 600	O=C1CCC(N2Cc3ccc(CNC(=O)Nc4ccc(Cl)cc4Cl)cc3C2=O)C(=O)N1 (centres unmarked) [Compound 45]
< 600	O=C1CCC(N2Cc3ccc(CNC(=O)Nc4cccc(Cl)c4Cl)cc3C2=O)C(=O)N1 (centres unmarked) [Compound 50]
< 600	O=C1CCC(N2Cc3ccc(CNC(=O)NCC4CCCCC4)cc3C2=O)C(=O)N1 (centres unmarked) [Compound 58]
< 600	CCc1ccc(NC(=O)NCc2ccc3c(c2)C(=O)N(C2CCC(=O)NC2=O)C3)cc1 (centres unmarked) [Compound 18]
< 600	O=C1CCC(N2Cc3ccc(CNC(=O)Nc4cc(Cl)cc(Cl)c4)cc3C2=O)C(=O)N1 (centres unmarked) [Compound 38]
< 600	Cc1ccccc1NC(=O)NCc1ccc2c(c1)C(=O)N(C1CCC(=O)NC1=O)C2 (centres unmarked) [Compound 37]
< 600	Cc1c(Cl)cccc1NC(=O)NCc1ccc2c(c1)C(=O)N(C1CCC(=O)NC1=O)C2 (centres unmarked) [Compound 19]
< 600	O=C1CCC(N2Cc3ccc(CNC(=O)Nc4ccc(F)c(F)c4)cc3C2=O)C(=O)N1 (centres unmarked) [Compound 39]
